{
  "source": "patent US10028913B2",
  "about": "“Liposomal pharmaceutical preparation and method for manufacturing the same” (priority 2006, dated 2018)",
  "key": {"C57 mice": {"tested_on": "C57 mice", "experiment": "Toxicity comparison of liposome formulations with different sizes", "format": "in vivo", "procedure": "The dose was 9 mg/kg. […] In mice of FM group, the body weight decreased over 30% and about 20% mice died."}, "[1]": {"experiment": "Tissue distribution in S-180 tumor-bearing mice", "format": "in vivo", "conditions": "male, Kunming, mouse, intravenous, 4 mg/kg i.v.; for concentration at 1 h: t 1 h; for concentration at 4 h: t 4 h; for concentration at 8 h: t 8 h; for concentration at 24 h: t 24 h", "procedure": "There were obvious differences in tissue distribution between PLM60 and FM in tumor-bearing mice. Male Kunming mice having a body weight about 20 g were used in the present example. […] Drugs were injected through vein in mice when tumor grew to 0.4-0.7 g. After the administration of drugs, mice were executed at various time points and their tissues were taken out to determine the concentration of mitoxantrone. The tissues included hearts, livers, spleens, lungs, kidneys, intestines, bone marrow and tumors."}, "[2]": {"conditions": "two dissociable groups at physiological pH; cited from earlier work"}, "Kunming mice": {"tested_on": "Kunming mice", "experiment": "Acute toxicity comparison of PLM60 and FM to Kunming mice", "format": "in vivo", "text": "Mice of groups 1-5 were administrated with different dose levels of FM, while mice of groups 6-10 were administrated with an equivalent dose level of liposomal drug. […] The dead animals were dissected and autopsied."}, "[3]": {"experiment": "Pharmacokinetics of PLM60 and FM in Kunming mice (plasma level of mitoxantrone)", "format": "in vivo", "conditions": "2 mg/kg, tail vein", "procedure": "This example was conducted in male Kunming mice with a body weight of about 20 g. Different dose levels of mitoxantrone were injected through tail vein in mice. […] Plasma samples were taken at different time points. The methods for processing and detecting plasma samples were described in the document: Methods in enzymology, Vol: 391, p176-185."}, "S180 solid tumor": {"tested_on": "S180 solid tumor", "experiment": "Treatment effects on S-180 sarcoma solid tumor", "format": "in vivo, KM mice", "conditions": "21st day after inoculation", "procedure": "(§1) Ascitic tumor-bearing mice which were inoculated with S180 tumor cells 7 days ago were executed by decollation, and milky viscous ascitic fluid was extracted and diluted with RPMI 1640 medium. After dilution, the tumor cell number was adjusted to 2.5×10^6 cells/ml. […] After inoculation, the cells in the residual tumor cell suspension were counted under light microscope, and living tumor cells were greater than 95%. The number of inoculated mice was 80.\nThe mice were administered by intravenous injection.\nThe mice were bred normally after administration. Tumor diameters were measured by vernier caliper 3 times per week, and body weights were measured at the same time. Tumor volume (TV) was calculated with the following formula: V=½×a×b2, in which a and b represent length and width, respectively. The tumor volumes were calculated by using the measurement results. Mice were executed by decollation on the 21st day after inoculation, tumors were taken out and weighed. […] The experimental result was tested by t-test."}, "L1210 ascitic tumor": {"tested_on": "L1210 ascitic tumor", "experiment": "Treatment effects of liposomal mitoxantrone with different size on L1210 ascitic tumor", "format": "in vivo, BDF1 mice", "conditions": "4 mg/kg, 60 days observation", "text": "as §1, with “Ascitic tumor BDF1” for “Ascitic tumor-bearing”, “with L1210 ascitic” for “with S180”, “extracted under aseptic condition” for “extracted”, “diluted by” for “diluted with”, “95%.” for “95%. The number of inoculated mice was 80.”\nAfter administration, the mice were bred normally. Their body weights were measured 3 times per week, the death time of each mouse was observed and recorded, and survival time was calculated. Mean survival time (MST) and median survival time were employed to evaluate the survival time of each group. Experimental observation was kept for 60 days after the inoculation.\nThe experimental scheme and data process mode were the same as Example 19. […] The administration dosage for mice in each group was 4 mg/kg."}, "[4]": {"conditions": "heart, read-out: concentration of mitoxantrone in Heart"}, "[5]": {"conditions": "intestine, read-out: concentration of mitoxantrone in Intestine"}, "[6]": {"conditions": "kidney, read-out: concentration of mitoxantrone in Kidney"}, "[7]": {"conditions": "liver, read-out: concentration of mitoxantrone in Liver"}, "[8]": {"conditions": "lung, read-out: concentration of mitoxantrone in Lung"}, "[9]": {"conditions": "spleen, read-out: concentration of mitoxantrone in Spleen"}, "[10]": {"conditions": "tumor, read-out: concentration of mitoxantrone in Tumor"}},
  "note": "Several values for one entry are separate records, joined by “and”; a condition that tells them apart may be missing. Equal values may be shown once. Read-outs that look alike come from different tables or passages of the source.",
  "data": [
    {"smiles": "O=C1c2c(O)ccc(O)c2C(=O)c2c(NCCNCCO)ccc(NCCNCCO)c21", "note": "[FM, mitoxantrone]", "values": [
      {"measurement": "mice died", "setting": "C57 mice; male C57 mice, FM group", "value": "about 20%"},
      {"measurement": "body weight decrease", "setting": "C57 mice; mouse, in vivo", "value": "over 30%"},
      {"measurement": "concentration at 1 h", "setting": "[1]; bone marrow, read-out: concentration of mitoxantrone in Bone marrow", "value": 127, "unit": "ng/g"},
      {"measurement": "concentration at 1 h", "setting": "[1]; [4]", "value": 5380, "unit": "ng/g"},
      {"measurement": "concentration at 4 h", "setting": "[1]; [4]", "value": 3520, "unit": "ng/g"},
      {"measurement": "concentration at 8 h", "setting": "[1]; [4]", "value": 3200, "unit": "ng/g"},
      {"measurement": "concentration at 24 h", "setting": "[1]; [4]", "value": 2940, "unit": "ng/g"},
      {"measurement": "concentration at 1 h", "setting": "[1]; [5]", "value": 1530, "unit": "ng/g"},
      {"measurement": "concentration at 4 h", "setting": "[1]; [5]", "value": 2140, "unit": "ng/g"},
      {"measurement": "concentration at 8 h", "setting": "[1]; [5]", "value": 2550, "unit": "ng/g"},
      {"measurement": "concentration at 24 h", "setting": "[1]; [5]", "value": 3940, "unit": "ng/g"},
      {"measurement": "concentration at 1 h", "setting": "[1]; [6]", "value": 18200, "unit": "ng/g"},
      {"measurement": "concentration at 4 h", "setting": "[1]; [6]", "value": 17200, "unit": "ng/g"},
      {"measurement": "concentration at 8 h", "setting": "[1]; [6]", "value": 13400, "unit": "ng/g"},
      {"measurement": "concentration at 24 h", "setting": "[1]; [6]", "value": 7460, "unit": "ng/g"},
      {"measurement": "concentration at 1 h", "setting": "[1]; [7]", "value": 4770, "unit": "ng/g"},
      {"measurement": "concentration at 4 h", "setting": "[1]; [7]", "value": 3560, "unit": "ng/g"},
      {"measurement": "concentration at 8 h", "setting": "[1]; [7]", "value": 2660, "unit": "ng/g"},
      {"measurement": "concentration at 24 h", "setting": "[1]; [7]", "value": 1940, "unit": "ng/g"},
      {"measurement": "concentration at 1 h", "setting": "[1]; [8]", "value": 10200, "unit": "ng/g"},
      {"measurement": "concentration at 4 h", "setting": "[1]; [8]", "value": 8020, "unit": "ng/g"},
      {"measurement": "concentration at 8 h", "setting": "[1]; [8]", "value": 7020, "unit": "ng/g"},
      {"measurement": "concentration at 24 h", "setting": "[1]; [8]", "value": 8080, "unit": "ng/g"},
      {"measurement": "concentration at 1 h", "setting": "[1]; [9]", "value": 4040, "unit": "ng/g"},
      {"measurement": "concentration at 4 h", "setting": "[1]; [9]", "value": 4460, "unit": "ng/g"},
      {"measurement": "concentration at 8 h", "setting": "[1]; [9]", "value": 3770, "unit": "ng/g"},
      {"measurement": "concentration at 24 h", "setting": "[1]; [9]", "value": 7750, "unit": "ng/g"},
      {"measurement": "concentration at 1 h", "setting": "[1]; [10]", "value": 61.4, "unit": "ng/g"},
      {"measurement": "concentration at 4 h", "setting": "[1]; [10]", "value": 13.3, "unit": "ng/g"},
      {"measurement": "pKa", "setting": "[2]", "value": 8.15},
      {"measurement": "Survival time of mice (male / female), individual animals", "setting": "Kunming mice; dose 12 mg/kg", "value": "18 day (4×) and 13 day (3×)"},
      {"measurement": "Survival time of mice (male / female), individual animals", "setting": "Kunming mice; dose 20 mg/kg", "value": "7 day (4×) and 8 day (3×)"},
      {"measurement": "AUMC 0-48", "setting": "[3]", "value": 0.103},
      {"measurement": "AUMC 0-∞", "setting": "[3]", "value": 0.135},
      {"measurement": "AUC(0-inf)", "setting": "[3]; male, Kunming, mouse, iv", "value": 199, "unit": "ng·h/mL"},
      {"measurement": "Cmax", "setting": "[3]; male, Kunming, mouse, iv", "value": 699, "unit": "ng/mL"},
      {"measurement": "Tmax", "setting": "[3]; male, Kunming, mouse, iv", "value": 4.98, "unit": "min"},
      {"measurement": "AUC(0-t)", "setting": "[3]; male, Kunming, mouse, iv, read-out: AUC 0-48", "value": 198, "unit": "ng·h/mL"},
      {"measurement": "MRT last", "setting": "[3]; male, Kunming, mouse, iv, read-out: MRT 0-48", "value": 31, "unit": "min"},
      {"measurement": "MRT inf", "setting": "[3]; male, Kunming, mouse, iv, read-out: MRT 0-∞", "value": 40.5, "unit": "min"},
      {"measurement": "Weight of tumor", "setting": "S180 solid tumor; 4 mg/kg i.v.", "value": "2828.5 ± 1067.8", "unit": "mg"},
      {"measurement": "Ratio of tumor-inhibiting", "setting": "S180 solid tumor; 6 mg/kg i.v.", "value": 18.50, "unit": "%"},
      {"measurement": "Weight of tumor", "setting": "S180 solid tumor; 6 mg/kg i.v.", "value": "2293.3 ± 1720.0", "unit": "mg"},
      {"measurement": "Mean survival time", "setting": "L1210 ascitic tumor", "value": "38.67 ± 3.54"},
      {"measurement": "Median survival time", "setting": "L1210 ascitic tumor", "value": "36.00 ± 6.06"},
      {"measurement": "Survival rate", "setting": "L1210 ascitic tumor", "value": 33.33, "unit": "%"}
    ]}
  ]
}
